From US7973147B2, “K04-0144 substance and a process for production thereof” (The Kitasato Institute, priority 2006, dated 2011)
Converted amounts (≈) assume the structure as drawn. “Also recorded” adds a separate entry of the source. Read-outs that look alike come from different tables or passages of the source.

What was measured:
Solubility in solvent = assay type: physicochemical; conditions: listed as K04-0144B Substance
MRSA 70 = assay: MIC, agar plate dilution method; assay type: cell-based, methicillin-resistant Staphylococcus aureus; conditions: Staphylococcus aureus
Procedure: (§1) Assay of minimum inhibitory concentration (MIC) was performed according to the agar plate dilution method (Method of Japan Society of Chemotherapy, CHEMOTHERAPY 29, 76-79, 1981).
(§2) Test organisms used were 27 types of microorganisms including clinical isolates of methicillin-resistant Staphylococcus aureus. Each test organism was cultured in Mueller-Hinton broth (2.1% w/v) (DIFCO) at 37° C. for 20 hours, and the cultured cells were suspended to about 10^6 cell counts/ml in the same medium, then was used as the microbial suspension for inoculation. The prepared microbial suspension was smeared by using the microplanter on MHA medium (Mueller-Hinton broth 2.1% (w/v) and agar 1.5%) containing K04-0144A substance, K04-0144B substance or K04-0144C substance, each of which was subjected to two-fold stepwise dilution from 128 μg/ml. After culturing at 37° C. for 20 hours, MIC was determined by macroscopically confirming the growth of microorganisms. Vancomycin, arbekacin and linezolid were used as a comparative control.

MRSA N315 IR94 HR-1 = assay: MIC, agar plate dilution method; assay type: cell-based, methicillin-resistant Staphylococcus aureus; conditions: Staphylococcus aureus, 20 h
Procedure: as §1, §2

MRSA N315 IR94 = assay: MIC, agar plate dilution method; assay type: cell-based, methicillin-resistant Staphylococcus aureus; conditions: Staphylococcus aureus, 20 h
Procedure: as §1, §2

MRSA 92-1191 = assay: MIC, agar plate dilution method; assay type: cell-based, methicillin-resistant Staphylococcus aureus; conditions: Staphylococcus aureus; MRSA 92-1191; 37° C., 20 hours; read-out: MIC
Procedure: as §1, §2

C. freundii ATCC8090 = assay: MIC, agar plate dilution method; assay type: cell-based; conditions: Citrobacter freundii; C. freundii ATCC8090; 37° C., 20 hours; read-out: MIC
Procedure: as §1, §2

S. aureus FDA209P = assay: MIC, agar plate dilution method; assay type: cell-based; conditions: Staphylococcus aureus; S. aureus FDA209P; 37° C., 20 hours; read-out: MIC
Procedure: as §1, §2

E. coli NIHJ JC-2 = assay: MIC, agar plate dilution method; assay type: cell-based; conditions: Escherichia coli, NIHJJC2; E. coli NIHJ JC-2; 37° C., 20 hours; read-out: MIC
Procedure: as §1, §2

[1] = test system: E. faecium NTCT12203(VanA); assay: MIC, agar plate dilution method; assay type: cell-based; conditions: Enterococcus faecium; E. faecium NTCT12203(VanA); 37° C., 20 hours; read-out: MIC
Procedure: as §1, §2

P. mirabilis IFO3849 = assay: MIC, agar plate dilution method; assay type: cell-based; conditions: Proteus mirabilis; P. mirabilis IFO3849; 37° C., 20 hours; read-out: MIC
Procedure: as §1, §2

M. morganii IID Kono = assay: MIC, agar plate dilution method; assay type: cell-based; conditions: Morganella morganii; M. morganii IID Kono; 37° C., 20 hours; read-out: MIC
Procedure: as §1, §2

P. aeruginosa 46001 = assay: MIC, agar plate dilution method; assay type: cell-based; conditions: Pseudomonas aeruginosa; P. aeruginosa 46001; 37° C., 20 hours; read-out: MIC
Procedure: as §1, §2

S. epidermidis IFO12648 = assay: MIC, agar plate dilution method; assay type: cell-based; conditions: Staphylococcus epidermidis; S. epidermidis IFO12648; 37° C., 20 hours; read-out: MIC
Procedure: as §1, §2

E. aerogenes NCTC10006 = assay: MIC, agar plate dilution method; assay type: cell-based; conditions: Klebsiella aerogenes; E. aerogenes NCTC10006; 37° C., 20 hours; read-out: MIC
Procedure: as §1, §2

S. aureus 8325(pMS97) = assay: MIC, agar plate dilution method; assay type: cell-based; conditions: Staphylococcus aureus, 20 h
Procedure: as §1, §2

E. cloacae IFO13535 = assay: MIC, agar plate dilution method; assay type: cell-based; conditions: Enterobacter cloacae; E. cloacae IFO13535; 37° C., 20 hours; read-out: MIC
Procedure: as §1, §2

A. calcoaceticus IFO2552 = assay: MIC, agar plate dilution method; assay type: cell-based; conditions: Acinetobacter calcoaceticus; A. calcoaceticus IFO2552; 37° C., 20 hours; read-out: MIC
Procedure: as §1, §2

[2] = test system: E. facecalis NTCT12201(VanA); assay: MIC, agar plate dilution method; assay type: cell-based; conditions: E. facecalis NTCT12201(VanA); 37° C., 20 hours; read-out: MIC
Procedure: as §1, §2

S. aureus Smith = assay: MIC, agar plate dilution method; assay type: cell-based; conditions: Staphylococcus aureus; S. aureus Smith; 37° C., 20 hours; read-out: MIC
Procedure: as §1, §2

S. aureus ISP447 = assay: MIC, agar plate dilution method; assay type: cell-based; conditions: Staphylococcus aureus; S. aureus ISP447; 37° C., 20 hours; read-out: MIC
Procedure: as §1, §2

S. aureus 8325(pEP2104) = assay: MIC, agar plate dilution method; assay type: cell-based; conditions: Staphylococcus aureus, 20 h
Procedure: as §1, §2

P. vulgaris OX-19 = assay: MIC, agar plate dilution method; assay type: cell-based; conditions: Proteus vulgaris, OX19; P. vulgaris OX-19; 37° C., 20 hours; read-out: MIC
Procedure: as §1, §2

K. pneumoniae NCTN9632 = assay: MIC, agar plate dilution method; assay type: cell-based; conditions: Klebsiella pneumoniae; K. pneumoniae NCTN9632; 37° C., 20 hours; read-out: MIC
Procedure: as §1, §2

S. marcescens IFO12648 = assay: MIC, agar plate dilution method; assay type: cell-based; conditions: Serratia marcescens; S. marcescens IFO12648; 37° C., 20 hours; read-out: MIC
Procedure: as §1, §2

S. aureus ISP217 = assay: MIC, agar plate dilution method; assay type: cell-based; conditions: Staphylococcus aureus; S. aureus ISP217; 37° C., 20 hours; read-out: MIC
Procedure: as §1, §2

M. luteus ATCC9341 = assay: MIC, agar plate dilution method; assay type: cell-based; conditions: Micrococcus luteus; M. luteus ATCC9341; 37° C., 20 hours; read-out: MIC
Procedure: as §1, §2

P. aeruginosa E-2 = assay: MIC, agar plate dilution method; assay type: cell-based; conditions: Pseudomonas aeruginosa, E2; P. aeruginosa E-2; 37° C., 20 hours; read-out: MIC
Procedure: as §1, §2

E. faecalis ATCC21212 = assay: MIC, agar plate dilution method; assay type: cell-based; conditions: Enterococcus faecalis; E. faecalis ATCC21212; 37° C., 20 hours; read-out: MIC
Procedure: as §1, §2

[3] = test system: MRSA (Clinical isolate, the Kitasato Hospital, Japan); assay: Enhancing action of K04-0144D substance on antibiotic activities, broth microdilution method; assay type: cell-based, methicillin-resistant Staphylococcus aureus; conditions: for MIC: Staphylococcus aureus, MRSA

Structure (SMILES): C=C(C/C=C(\C)CCC=C(C)C)CCC(C)(C)/C=C/CC/C(C)=C\COC(COP(=O)(O)OC1OC(C(N)=O)C(C)(O)C(OC(N)=O)C1OC1OC(CO)C(OC2OC(C)C(OC3OC(C(=O)O)C(O)C(O)C3O)C(O)C2NC(C)=O)C(O)C1NC(C)=O)C(=O)O (stereo not drawn) [K04-0144B]
- Solubility in solvent (Solubility in solvent): Soluble in water, methanol and dimethyl sulfoxide; also recorded: Insoluble in acetone, chloroform and n-hexane
- MIC (MRSA 70; MRSA, 20 h): 0.125 µg/mL (≈ 0.0943 µM)
- MIC (MRSA N315 IR94 HR-1): 0.125 µg/mL (≈ 0.0943 µM)
- MIC (MRSA N315 IR94): 0.125 µg/mL (≈ 0.0943 µM)
- MIC (MRSA 92-1191): 1 µg/mL (≈ 0.755 µM)
- MIC (C. freundii ATCC8090): > 16 µg/mL
- MIC (S. aureus FDA209P): 2 µg/mL (≈ 1.51 µM)
- MIC (E. coli NIHJ JC-2): > 16 µg/mL
- MIC [1]: > 16 µg/mL
- MIC (P. mirabilis IFO3849): 16 µg/mL (≈ 12.1 µM)
- MIC (M. morganii IID Kono): > 16 µg/mL
- MIC (P. aeruginosa 46001): > 16 µg/mL
- MIC (S. epidermidis IFO12648): 8 µg/mL (≈ 6.04 µM)
- MIC (E. aerogenes NCTC10006): > 16 µg/mL
- MIC (S. aureus 8325(pMS97)): 1 µg/mL (≈ 0.755 µM)
- MIC (E. cloacae IFO13535): > 16 µg/mL
- MIC (A. calcoaceticus IFO2552): 8 µg/mL (≈ 6.04 µM)
- MIC [2]: 2 µg/mL (≈ 1.51 µM)
- MIC (S. aureus Smith): 2 µg/mL (≈ 1.51 µM)
- MIC (S. aureus ISP447): 0.5 µg/mL (≈ 0.377 µM)
- MIC (S. aureus 8325(pEP2104)): 0.06 µg/mL (≈ 0.0453 µM)
- MIC (P. vulgaris OX-19): 4 µg/mL (≈ 3.02 µM)
- MIC (K. pneumoniae NCTN9632): > 16 µg/mL
- MIC (S. marcescens IFO12648): > 16 µg/mL
- MIC (S. aureus ISP217): 0.5 µg/mL (≈ 0.377 µM)
- MIC (M. luteus ATCC9341): > 16 µg/mL
- MIC (P. aeruginosa E-2): > 16 µg/mL
- MIC (E. faecalis ATCC21212): 2 µg/mL (≈ 1.51 µM)

Structure (SMILES): NCC[C@H](O)C(=O)N[C@@H]1C[C@H](N)[C@@H](O[C@H]2O[C@H](CN)CC[C@H]2N)[C@H](O)[C@H]1O[C@H]1O[C@H](CO)[C@@H](O)[C@H](N)[C@H]1O [arbekacin, reference compound]
- MIC (MRSA 70; MRSA 70, 37° C., 20 hours, read-out: MIC): 0.5 µg/mL (≈ 0.905 µM)
- MIC (MRSA N315 IR94 HR-1): 1 µg/mL (≈ 1.81 µM)
- MIC (MRSA 92-1191): 0.5 µg/mL (≈ 0.905 µM)
- MIC (C. freundii ATCC8090): 0.5 µg/mL (≈ 0.905 µM)
- MIC (S. aureus FDA209P): ≤ 0.25 µg/mL
- MIC (E. coli NIHJ JC-2): > 32 µg/mL
- MIC [1]: 8 µg/mL (≈ 14.5 µM)
- MIC (P. mirabilis IFO3849): 2 µg/mL (≈ 3.62 µM)
- MIC (M. morganii IID Kono): 0.5 µg/mL (≈ 0.905 µM)
- MIC (P. aeruginosa 46001): 1 µg/mL (≈ 1.81 µM)
- MIC (S. epidermidis IFO12648): ≤ 0.25 µg/mL
- MIC (E. aerogenes NCTC10006): ≤ 0.25 µg/mL
- MIC (S. aureus 8325(pMS97)): ≤ 0.25 µg/mL
- MIC (E. cloacae IFO13535): 0.5 µg/mL (≈ 0.905 µM)
- MIC (A. calcoaceticus IFO2552): ≤ 0.25 µg/mL
- MIC [2]: > 32 µg/mL
- MIC (S. aureus Smith): ≤ 0.25 µg/mL
- MIC (S. aureus ISP447): ≤ 0.25 µg/mL
- MIC (S. aureus 8325(pEP2104)): ≤ 0.25 µg/mL
- MIC (P. vulgaris OX-19): 2 µg/mL (≈ 3.62 µM)
- MIC (K. pneumoniae NCTN9632): ≤ 0.25 µg/mL
- MIC (S. marcescens IFO12648): 1 µg/mL (≈ 1.81 µM)
- MIC (S. aureus ISP217): ≤ 0.25 µg/mL
- MIC (M. luteus ATCC9341): ≤ 0.25 µg/mL
- MIC (P. aeruginosa E-2): 4 µg/mL (≈ 7.24 µM)
- MIC (E. faecalis ATCC21212): > 32 µg/mL

Structure (SMILES): C[C@@H](O)[C@H]1C(=O)N2C(C(=O)O)=C(SCCN=CN)C[C@H]12 [Imipenem, imipenem]
- Ratio (−/+K04-0144D) ([3]; MIC alone / MIC with K04-0144D substance 16 μg/ml): 1024
- MIC ([3]; antibiotic alone, without K04-0144D substance, read-out: Minimum Inhibitory Concentration (−)): 32 µg/mL
- MIC ([3]; combined use with K04-0144D substance 16 μg/ml, read-out: Minimum Inhibitory Concentration (+)): 0.03 µg/mL
